The values below come from patent US20260116874A1, “HETEROAROMATIC INDOLESULFONAMIDES” (SEED Therapeutics, Inc., priority 2023, published 2026).

Each structure is given as a SMILES string. Some results are limits rather than exact numbers.

For this experiment, the system named is HCT116 colorectal cells. Kind of experiment: Cell viability assay (CellTiter-Glo) in HCT116 cells. The experiment is classed as cell-based. The following applies: Homo sapiens, HCT-116, 72h, CellTiter-Glo, read-out: HCT116 Assay (IC50). The procedure: HCT116 colorectal cells were used in these experiments. HCT116 cells were obtained from ATCC. The CellTiter-Glo® Luminescent Cell Viability Assay Reagent was obtained from Promega.
Into a 96-well plate, 3000 HCT116 cells were seeded with 100 μL of media (McCoy's 5A Medium supplemented with 10% FBS, 100 units penicillin, and 100 μg streptomycin per mL) 24h before the experiment. For compound treatment, the liquid handling system-Pico machine was used to prepare all the compounds. Each master plate contained serial dilution of 2 compounds, including the control compound E7820. 10 mM compound stock was added to each well of the assay plate to give final concentrations of […], 0.003, 0.002 and 0 μM. Each concentration was tested in triplicate. After 72h, cell viability was determined using CellTiter-Glo Luminescent Cell Viability Assay Reagent following the manufacturer's recommended protocol. Briefly, equilibrate the assay plate and its contents at room temperature for approximately 30 minutes. 100 μL of CellTiter-Glo reagent was added to each well of the assay plate and the contents were mixed for 2 minutes at 500 rpm on an orbital shaker to induce cell lysis (Fisherbrand). The plate was incubated at room temperature for 10 minutes to stabilize luminescent signal. Then the plate was immediately placed in a plate reader (PerkinElmer Multimode Plate Reader Envision2105) and the luminescence signal (0.5 second per well integration time) was determined. IC50 values were calculated using Graphpad Prism 9 software.
Cell viability assays were performed to compare the potency of Compound 1 to Compound 143.
With `Cc1ccc(NS(=O)(=O)c2cnc(N(C)S(C)(=O)=O)s2)c2[nH]cc(C#N)c12` [Compound 91], the half-inhibitory concentration (IC50) is under 500 nM.

With `C#Cc1c[nH]c2c(NS(=O)(=O)c3cnc(C)s3)ccc(C)c12` [Compound 104], the IC50 is over 1000 nM.

Consider `Cc1ncc(S(=O)(=O)Nc2ccc(Cl)c3c(C#N)c[nH]c23)s1` [Compound 6, N-(4-chloro-3-cyano-1H-indol-7-yl)-2-methyl-thiazole-5-sulfonamide], for which the IC50 was under 500 nM.

For `Cc1ncc(S(=O)(=O)N(C)c2ccc(C)c3c(C#N)c[nH]c23)s1` [Compound 30, N-(3-cyano-4-methyl-1H-indol-7-yl)-N,2-dimethyl-thiazole-5-sulfonamide], the half-maximal inhibitory concentration (IC50) was over 1000 nM.

On to `Cc1ncc(S(=O)(=O)Nc2ccc(C)c3c(C(F)F)c[nH]c23)s1` [Compound 5, N-(3-(difluoromethyl)-4-methyl-1H-indol-7-yl)-2-methylthiazole-5-sulfonamide], for which the IC50 was 500 to 1000 nM.

As to `Cc1ccc(NS(=O)(=O)c2cnc(C3CCNCC3)s2)c2[nH]cc(C#N)c12` [Compound 26, N-(3-cyano-4-methyl-1H-indol-7-yl)-2-(4-piperidyl)thiazole-5-sulfonamide], the IC50 was over 1000 nM.

In the case of `Cc1ccc(NS(=O)(=O)c2cc3n(n2)CCC3)c2[nH]cc(C#N)c12` [Compound 44], the 50% inhibitory concentration (IC50) lay in the range of 500 to 1000 nM.

For the compound `O=S(=O)(Nc1ccc(Cl)c2c(Cl)c[nH]c12)c1cnc(C(F)(F)F)s1` [Compound 11, N-(3,4-dichloro-1H-indol-7-yl)-2-(trifluoromethyl)thiazole-5-sulfonamide], the IC50 is over 1000 nM.

Consider `COc1ncc(S(=O)(=O)Nc2ccc(C)c3c(C#N)c[nH]c23)s1` [Compound 90], for which the half-maximal inhibitory concentration (IC50) is under 500 nM.

Consider `Cc1ccc(NS(=O)(=O)c2ccc3nc(C#N)cn3c2)c2[nH]cc(C#N)c12` [Compound 42], for which the IC50 is over 1000 nM.

For `Cc1ncc(S(=N)(=O)Nc2ccc(C)c3c(C#N)c[nH]c23)s1` (centres unmarked) [Compound 33, 4-methyl-7-[[(2-methylthiazol-5-yl)sulfonimidoyl]amino]-1H-indole-3-carbonitrile], the half-inhibitory concentration (IC50) was over 1000 nM.

As for `Cc1ccc(NS(=O)(=O)c2cnc(N)s2)c2[nH]cc(C#N)c12` [Compound 19, 2-amino-N-(3-cyano-4-methyl-1H-indol-7-yl)thiazole-5-sulfonamide], the IC50 fell in the range of 500 to 1000 nM.

With `Cc1ccc(NS(=O)(=O)c2cnc(C(C)N(C)C)s2)c2[nH]cc(C#N)c12` (centres unmarked) [Compound 23, N-(3-cyano-4-methyl-1H-indol-7-yl)-2-(1-(dimethylamino)ethyl)thiazole-5-sulfonamide], the IC50 lay in the range of 500 to 1000 nM.

As for `CC(=O)N1CCC(c2ncc(S(=O)(=O)Nc3ccc(C)c4c(C#N)c[nH]c34)s2)CC1` [Compound 29, 2-(1-acetyl-4-piperidyl)-N-(3-cyano-4-methyl-1H-indol-7-yl)thiazole-5-sulfonamide], the half-inhibitory concentration (IC50) is over 1000 nM.

As to `O=S(=O)(Nc1ccc(Cl)c2c(Cl)c[nH]c12)c1cnc(C2(N3CCOCC3)CCC2)s1` [Compound 75], the IC50 lay in the range of 500 to 1000 nM.

Regarding `COCCc1ncc(S(=O)(=O)Nc2ccc(C)c3c(C#N)c[nH]c23)s1` [Compound 7, N-(3-cyano-4-methyl-1H-indol-7-yl)-2-(2-methoxyethyl)thiazole-5-sulfonamide], the IC50 was under 500 nM.

`Cc1ccc(NS(=O)(=O)c2cnn3c2CCC3)c2[nH]cc(C#N)c12` [Compound 43]: the IC50 is 500 to 1000 nM.

Take `Cc1ccc(NS(=O)(=O)c2cnc(C3CCCN(C)C3)s2)c2[nH]cc(C#N)c12` (centres unmarked) [Compound 28, N-(3-cyano-4-methyl-1H-indol-7-yl)-2-(1-methylpiperidin-3-yl)thiazole-5-sulfonamide]: the IC50 is over 1000 nM.

As to `Cc1nc(C)c(S(=O)(=O)Nc2ccc(C)c3c(C#N)c[nH]c23)s1` [Compound 21, N-(3-cyano-4-methyl-1H-indol-7-yl)-2,4-dimethylthiazole-5-sulfonamide], the half-maximal inhibitory concentration (IC50) lay within 500 to 1000 nM.

Regarding `Cc1ncc(S(=O)(=O)Nc2ccc(Cl)c3c(Cl)c[nH]c23)s1` [Compound 4, N-(3,4-dichloro-1H-indol-7-yl)-2-methyl-thiazole-5-sulfonamide], the half-maximal inhibitory concentration (IC50) lay within 500 to 1000 nM.

Regarding `CC(=O)Nc1ncc(S(=O)(=O)Nc2ccc(C)c3c(C#N)c[nH]c23)s1` [Compound 34, N-(5-(N-(3-cyano-4-methyl-1H-indol-7-yl)sulfamoyl)thiazol-2-yl)acetamide], the half-inhibitory concentration (IC50) lay in the range of 500 to 1000 nM.

Regarding `CN1CCCC(c2ncc(S(=O)(=O)Nc3ccc(Cl)c4cc[nH]c34)s2)C1` (centres unmarked) [Compound 16, N-(4-chloro-1H-indol-7-yl)-2-(1-methylpiperidin-3-yl)thiazole-5-sulfonamide], the IC50 was over 1000 nM.

`Cc1ccc(NS(=O)(=O)c2cnc(C3CCN(C(=O)OC(C)(C)C)CC3)s2)c2[nH]cc(C#N)c12` [Compound 25, tert-butyl 4-[5-[(3-cyano-4-methyl-1H-indol-7-yl)sulfamoyl]thiazol-2-yl]piperidine-1-carboxylate]: the 50% inhibitory concentration (IC50) is over 1000 nM.

As for `Cc1ccc(NS(=O)(=O)c2cnc(NC(=O)OC(C)(C)C)s2)c2[nH]cc(C#N)c12` [Compound 18, tert-butyl (5-(N-(3-cyano-4-methyl-1H-indol-7-yl)sulfamoyl)thiazol-2-yl)carbamate], the IC50 fell in the range of 500 to 1000 nM.

Take `Cc1ccc(NS(=O)(=O)c2cnc(N3CCOCC3)s2)c2[nH]cc(C#N)c12` [Compound 17, N-(3-cyano-4-methyl-1H-indol-7-yl)-2-morpholino-thiazole-5-sulfonamide]: the concentration for half-maximal inhibition (IC50) fell in the range of 500 to 1000 nM.

For the compound `Cc1ncc(S(=O)(=O)Nc2cccc3c(Cl)c[nH]c23)s1` [Compound 9, N-(3-chloro-1H-indol-7-yl)-2-methylthiazole-5-sulfonamide], the IC50 was 500 to 1000 nM.

As to `Cc1ccc(NS(=O)(=O)c2cnc(CN3CCC(C#N)C3)s2)c2[nH]cc(C#N)c12` (centres unmarked) [Compound 24, N-(3-cyano-4-methyl-1H-indol-7-yl)-2-((3-cyanopyrrolidin-1-yl)methyl)thiazole-5-sulfonamide], the concentration for half-maximal inhibition (IC50) was 500 to 1000 nM.

`O=S(=O)(Nc1cccc2c(Cl)c[nH]c12)c1cnc(C(F)F)s1` [Compound 13, N-(3-chloro-1H-indol-7-yl)-2-(difluoromethyl)thiazole-5-sulfonamide]: the IC50 was 500 to 1000 nM.

`O=S(=O)(Nc1ccc(Cl)c2cc[nH]c12)c1cnc(C2CCCNC2)s1` (centres unmarked) [Compound 15, N-(4-chloro-1H-indol-7-yl)-2-(piperidin-3-yl)thiazole-5-sulfonamide]: the IC50 fell in the range of 500 to 1000 nM.

Regarding `O=S(=O)(Nc1ccc(Cl)c2c(Cl)c[nH]c12)c1cscn1` [Compound 84], the IC50 fell in the range of 500 to 1000 nM.

`Cc1ccc(NS(=O)(=O)c2cnc(C(C)(C)O)s2)c2[nH]cc(C#N)c12` [Compound 35, N-(3-cyano-4-methyl-1H-indol-7-yl)-2-(1-hydroxy-1-methyl-ethyl)thiazole-5-sulfonamide]: the concentration for half-maximal inhibition (IC50) was 500 to 1000 nM.

Consider `Cc1ccc(NS(=O)(=O)c2cnc(C(F)(F)F)s2)c2[nH]cc(C#N)c12` [Compound 10, N-(3-cyano-4-methyl-1H-indol-7-yl)-2-(trifluoromethyl)thiazole-5-sulfonamide], for which the IC50 was over 1000 nM.

For the compound `[2H]C([2H])([2H])c1ncc(S(=O)(=O)Nc2ccc(C)c3c(Cl)c[nH]c23)s1` [Compound 92], the half-inhibitory concentration (IC50) was in the range of 500 to 1000 nM.

As for `Cc1ccc(NS(=O)(=O)c2cnc(C3(N4CCOCC4)CCC3)s2)c2[nH]cc(C#N)c12` [Compound 32, N-(3-cyano-4-methyl-1H-indol-7-yl)-2-(1-morpholinocyclobutyl)thiazole-5-sulfonamide], the IC50 lay within 500 to 1000 nM.

As to `Cc1ccc(NS(=O)(=O)c2cnc(C3CCCNC3)s2)c2[nH]cc(C#N)c12` (centres unmarked) [Compound 27, N-(3-cyano-4-methyl-1H-indol-7-yl)-2-(piperidin-3-yl)thiazole-5-sulfonamide], the 50% inhibitory concentration (IC50) is over 1000 nM.

Take `Cc1ccc(NS(=O)(=O)c2ccc3nccn3c2)c2[nH]cc(C#N)c12` [Compound 41]: the half-maximal inhibitory concentration (IC50) is 500 to 1000 nM.

Consider `Cc1ccc(NS(=O)(=O)c2cscn2)c2[nH]cc(C#N)c12` [Compound 85], for which the concentration for half-maximal inhibition (IC50) was 500 to 1000 nM.

On to `Cc1ccc(NS(=O)(=O)c2cnc(C3CCN(C)CC3)s2)c2[nH]cc(C#N)c12` [Compound 12, N-(3-cyano-4-methyl-1H-indol-7-yl)-2-(1-methyl-4-piperidyl)thiazole-5-sulfonamide], for which the half-maximal inhibitory concentration (IC50) was over 1000 nM.

Regarding `Cc1ncc(CS(=O)(=O)Nc2ccc(C)c3c(C#N)c[nH]c23)s1` [Compound 8, N-(3-cyano-4-methyl-1H-indol-7-yl)-1-(2-methylthiazol-5-yl)methanesulfonamide], the 50% inhibitory concentration (IC50) is over 1000 nM.

For `Cc1ccc(NS(=O)(=O)c2cnc(OCC(=O)N3CCCC3C#N)s2)c2[nH]cc(C#N)c12` (centres unmarked) [Compound 65], the half-inhibitory concentration (IC50) is over 1000 nM.

`Cc1ccc(NS(=O)(=O)c2ccn3cc(C#N)nc3c2)c2[nH]cc(C#N)c12` [Compound 40]: the IC50 lay within 500 to 1000 nM.
